system: HBV viral load (viral production from HepAD38 cells); test: Activity of test compounds on viral production from HepAD38 cells (viral load by qPCR of HBV core sequence); format: cell-based; conditions: Hepatitis B virus, HePAD38, 120 h, viral load lowering, 5 days, qPCR of supernatant, read-out: VL HepAD38 EC50 range
Protocol: Assay Measuring Activity of Test Compounds on Viral Production from HepAD38 Cells
HepAD38 cells grown in a T-150 flask (Corning, cat #: 430825) with Growth Medium (DMEM/F12 (1:1) (Hyclone, cat #: SH30023.02), 1× Pen/Strep (Invitrogen, cat #: 15140-122), 10% FBS (Tissue Culture Biologics, cat #: 101), 250 μg/mL G418 (Alfa Aesar, cat #: J62671), 1 μg/mL Tetracycline (Teknova, cat #: T3320)) were detached with 0.25% trypsin-EDTA (Invitrogen, cat #: 25200-056). Tetracycline-free treatment medium (15 mL DMEM/F12 (1:1) 1× Pen/step, with 2% FBS, Tet-system approved (Clontech, cat #: 631106) were then added to mix, transferred into a 50 ml conical tube (Falcon, cat #: 21008-918) and spun at 1300 rpm for 5 min. Pelleted cells were then re-suspended/washed with 50 mL of 1×DPBS (Invitrogen, cat #: 14190-136) 2 times and 50 mL treatment medium twice. HepAD38 cells were then re-suspended with 10 mL of treatment medium, syringed and counted. Wells of 96-well clear bottom TC plate (Corning, cat #: 3904) were seeded at 50,000 cells/well in 180 μL of treatment medium, and 20 μL of either 10% DMSO (Sigma, cat #: D4540) as controls or a 10× solution of test compounds in 10% DMSO in treatment media was added for a final compound concentration starting at 10 μM, and plates were incubated in 5% CO2 incubator at 37° C. for 5 days.
Subsequently viral load production was assayed by quantitative PCR (qPCR) of the HBV core sequence. PCR reaction mixture containing forward primers HBV-f 5′-CTGTGCCTTGGGTGGCITT-3′ (IDT DNA), Reverse primers HBV-r 5′-[…]-3′ (IDT DNA), Fluorescent TaqMan™ Probes HBV-probe 5′-FAM/AGCTCCAAA/ZENMITCTITATAAGGGTCGATGTC/3IABkFQ-3′ (IDT DNA), 10 μL/well of PerfeCTa® qPCR ToughMix® (Quanta Biosciences, Cat #: 95114-05K), and 6 μL/well of DEPC water (Alfa Aesar, cat #: J62087) was prepared. Four μL of supernatant was added to 16 μL of the reaction mixture in a qPCR plate (Applied Biosytems, Cat #: 4309849), sealed with a film (Applied Biosystems, Cat #: 4311971), centrifuged for a few seconds, and subsequently run on an Applied Biosystems VIIA7. The PCR mixture was incubated at 45° C. for 5 min, then 95° C. for 10 min, followed by 40 cycles of 10 seconds at 95° C. and 20 seconds at 60° C. Viral load was quantified against known HBV DNA standards by using ViiA™ 7 Software. Viral load in the supernatant from wells with treated cells were compared against viral load in supernatant from DMSO control wells (3 per plate). Cell viability assay was performed with CellTiter-Glo Luminescent Cell Viability Assay (Promega, cat #: G7573) with modification. Mixed appropriate amount of CellTiter-Glo (CTG) 1×DPBS in a 1:1 ratio, added 100 uL of the mixture to each well followed completely removal of all supernatant in each well without touching cell surface. Incubated the plate at room temperature for 10 min on an orbital shaker, and then read the plate with a plate reader (TECAN M1000 or Envision). EC50 or CC50 values were calculated through curve-fitting of the four-parameter nonlinear-logistic-regression model (GraphPad Prism or Dotmatics). CC50 values were all >10 μM.

Row | Structure (SMILES) | EC50 [nM]
1 | CS(=O)(=O)CC1(O)CC2CC(c3nc4n(c3C(=O)Nc3ccc(F)c(Cl)c3)CCC4)CC2C1 (single isomer, unassigned) [Example 35, N-(3-Chloro-4-fluorophenyl)-2-(5-hydroxy-5-((methylsulfonyl)methyl)octahydropentalen-2-yl)-6,7-dihydro-5H-pyrrolo[1,2-a]imidazole-3-carboxamide] | < 10
2 | CC(C)n1nc(C(F)F)cc1C1(O)CC2CC(c3ncn(C)c3C(=O)Nc3ccc(F)c(Cl)c3)CC2C1 (stereo not drawn) [Example 153, N-(3-Chloro-4-fluorophenyl)-4-(5-(3-(difluoromethyl)-1-isopropyl-1H-pyrazol-5-yl)-5-hydroxyoctahydropentalen-2-yl)-1-methyl-1H-imidazole-5-carboxamide] | < 10
3 | Cn1cc(Br)c(C2(O)CC3CC(c4ncn(C)c4C(=O)Nc4ccc(F)c(Cl)c4)CC3C2)n1 (stereo not drawn) [Example 117, 4-(5-(4-bromo-1-methyl-1H-pyrazol-3-yl)-5-hydroxyoctahydropentalen-2-yl)-N-(3-chloro-4-fluorophenyl)-1-methyl-1H-imidazole-5-carboxamide] | < 10
4 | Cn1cc(C2(O)CC3CC(c4ncn(C)c4C(=O)Nc4ccc(F)c(C#N)c4)CC3C2)c(C(F)(F)F)n1 (stereo not drawn) [Example 115, N-(3-Cyano-4-fluorophenyl)-4-(5-hydroxy-5-(1-methyl-3-(trifluoromethyl)-1H-pyrazol-4-yl)octahydropentalen-2-yl)-1-methyl-1H-imidazole-5-carboxamide] | < 10
5 | Cn1cnc(C2CC3CC(O)(c4[nH]ncc4C(F)(F)F)CC3C2)c1C(=O)Nc1ccc(F)c(Cl)c1 (stereo not drawn) [Example 149, N-(3-Chloro-4-fluorophenyl)-4-(5-hydroxy-5-(4-(trifluoromethyl)-1H-pyrazol-5-yl)octahydropentalen-2-yl)-1-methyl-1H-imidazole-5-carboxamide] | < 10
6 | Cn1cc(Cl)c(C2(O)CC3CC(c4ncn(C)c4C(=O)Nc4ccc(F)c(Cl)c4)CC3C2)n1 (stereo not drawn) [Example 139, 4-(5-(4-Chloro-1-methyl-1H-pyrazol-3-yl)-5-hydroxyoctahydropentalen-2-yl)-N-(3-chloro-4-fluorophenyl)-1-methyl-1H-imidazole-5-carboxamide] | < 10
7 | CC(C)(C)OC(=O)N1CCn2c(nc(C3CC4CC(=O)CC4C3)c2C(=O)Nc2ccc(F)c(Cl)c2)C1 (stereo not drawn) [Example 90, tert-butyl 3-((3-chloro-4-fluorophenyl)carbamoyl)-2-(5-oxooctahydro-pentalen-2-yl)-5,6-dihydroimidazo[1,2-a]pyrazine-7(8H)-carboxylate] | 50 to 500
8 | CN(Cc1ccccc1)c1nc(C2CC3CC(O)CC3C2)c(C(=O)Nc2ccc(F)c(Cl)c2)n1C (stereo not drawn) [Example 48, 2-(benzyl(methyl)amino)-N-(3-chloro-4-fluorophenyl)-4-(5-hydroxyoctahydropentalen-2-yl)-1-methyl-1H-imidazole-5-carboxamide] | 50 to 500
9 | Cn1cnc(C2CC3CC(O)(c4cccc(F)c4)CC3C2)c1C(=O)Nc1ccc(F)c(Cl)c1 (stereo not drawn) [Example 6, N-(3-Chloro-4-fluorophenyl)-4-(5-(3-fluorophenyl)-5-hydroxyoctahydropentalen-2-yl)-1-methyl-1H-imidazole-5-carboxamide] | < 10
10 | Cn1cnc(C2CC3CC(O)(c4n[nH]cc4C(F)F)CC3C2)c1C(=O)Nc1ccc(F)c(Cl)c1 (stereo not drawn) [Example 169, N-(3-Chloro-4-fluorophenyl)-4-(5-(4-(difluoromethyl)-1H-pyrazol-3-yl)-5-hydroxyoctahydropentalen-2-yl)-1-methyl-1H-imidazole-5-carboxamide] | < 10
11 | CCNc1cc(C2(O)CC3CC(c4ncn(C)c4C(=O)Nc4ccc(F)c(Cl)c4)CC3C2)n(C)n1 (stereo not drawn) [Example 200, N-(3-Chloro-4-fluorophenyl)-4-(5-(3-(ethylamino)-1-methyl-1H-pyrazol-5-yl)-5-hydroxyoctahydropentalen-2-yl)-1-methyl-1H-imidazole-5-carboxamide] | < 10
12 | Cn1cnc(C2CC3CC(O)(c4cc(C(C)(C)C(N)=O)nn4C)CC3C2)c1C(=O)Nc1ccc(F)c(Cl)c1 (stereo not drawn) [Example 106, 4-(5-(3-(1-amino-2-methyl-1-oxopropan-2-yl)-1-methyl-1H-pyrazol-5-yl)-5-hydroxyoctahydropentalen-2-yl)-N-(3-chloro-4-fluorophenyl)-1-methyl-1H-imidazole-5-carboxamide] | < 10
13 | O=C(Nc1ccc(F)c(Cl)c1)c1c(C2CC3CC(O)CC3C2)nc2n1CCC2 (single isomer, unassigned) [Example 32, N-(3-Chloro-4-fluorophenyl)-2-(5-hydroxyoctahydropentalen-2-yl)-6,7-dihydro-5H-pyrrolo[1,2-a]imidazole-3-carboxamide] | 10 to 50
14 | Cn1cnc(C2CC3CC(O)(c4[nH]ncc4F)CC3C2)c1C(=O)Nc1ccc(F)c(Cl)c1 (stereo not drawn) [Example 148, N-(3-Chloro-4-fluorophenyl)-4-(5-(4-fluoro-1H-pyrazol-5-yl)-5-hydroxyoctahydropentalen-2-yl)-1-methyl-1H-imidazole-5-carboxamide] | < 10
15 | CC(=O)Nc1cc(C2(O)CC3CC(c4ncn(C)c4C(=O)Nc4ccc(F)c(Cl)c4)CC3C2)n(C)n1 (stereo not drawn) [Example 163, 4-(5-(3-Acetamido-1-methyl-1H-pyrazol-5-yl)-5-hydroxyoctahydropentalen-2-yl)-N-(3-chloro-4-fluorophenyl)-1-methyl-1H-imidazole-5-carboxamide] | < 10
16 | Cn1cc(C2(O)CC3CC(c4ncn(C)c4C(=O)Nc4ccc(F)c(Cl)c4)CC3C2)c(Br)n1 (stereo not drawn) [Example 182, 4-(5-(3-Bromo-1-methyl-1H-pyrazol-4-yl)-5-hydroxyoctahydropentalen-2-yl)-N-(3-chloro-4-fluorophenyl)-1-methyl-1H-imidazole-5-carboxamide] | < 10
17 | CC(C)n1nc([N+](=O)[O-])cc1C1(O)CC2CC(c3ncn(C)c3C(=O)Nc3ccc(F)c(Cl)c3)CC2C1 (stereo not drawn) [Example 164, N-(3-Chloro-4-fluorophenyl)-4-(5-hydroxy-5-(1-isopropyl-3-nitro-1H-pyrazol-5-yl)octahydropentalen-2-yl)-1-methyl-1H-imidazole-5-carboxamide] | < 10
18 | Cn1c(Cl)nc(C2CC3CC(=O)CC3C2)c1C(=O)Nc1ccc(F)c(Cl)c1 (stereo not drawn) [Example 21, 2-Chloro-N-(3-chloro-4-fluorophenyl)-1-methyl-4-(5-oxooctahydropentalen-2-yl)-1H-imidazole-5-carboxamide] | < 10
19 | O=C(Nc1ccc(F)c(Cl)c1)c1c(C2CC3CC(O)(C(F)(F)F)CC3C2)nc2n1CCC2 (single isomer, unassigned) [Example 34, N-(3-Chloro-4-fluorophenyl)-2-(5-hydroxy-5-(trifluoromethyl)octahydropentalen-2-yl)-6,7-dihydro-5H-pyrrolo[1,2-a]imidazole-3-carboxamide] | 10 to 50
20 | Cc1nc(C2CC3CC(=O)CC3C2)c(C(=O)Nc2ccc(F)c(Cl)c2)n1C (stereo not drawn) [Example 23, N-(3-Chloro-4-fluorophenyl)-1,2-dimethyl-4-(5-oxooctahydropentalen-2-yl)-1H-imidazole-5-carboxamide] | < 10
21 | Cn1cnc(C2CC3CC(O)(c4cc(O)nn4C)CC3C2)c1C(=O)Nc1ccc(F)c(Cl)c1 (stereo not drawn) [Example 53, N-(3-Chloro-4-fluorophenyl)-4-(5-hydroxy-5-(3-hydroxy-1-methyl-1H-pyrazol-5-yl)octahydropentalen-2-yl)-1-methyl-1H-imidazole-5-carboxamide] | < 10
